Results: paper PMC7013880, “Synthesis of Spin-Labelled Bergamottin: A Potent CYP3A4 Inhibitor with Antiproliferative Activity” (International Journal of Molecular Sciences, 2020)

Key:
[1] = molecular target: CYP2C9 (Homo sapiens, UniProt P11712)
Procedure: (§2) Stock solutions of BM, SL-BM, and positive controls (each 5000 μM) were prepared in dimethyl sulfoxide (Fluka) and stored at –20 °C. The inhibitory effects of BM and SL-BM on the CYP2C9, 2C19, and 3A4 enzymes were examined using CypExpress^TM assay kits by employing diclofenac, S-mephenytoin, and testosterone substrates, respectively.
(§3) The substrates and products were analyzed using the HPLC system comprising a pump (Waters 510; Milford, MA, USA), an injector (Rheodyne 7125) with a 20 μL sample loop, and a UV detector (Waters 486). The data were evaluated by employing Millennium Chromatographic Manager software (Waters). HPLC analyses of diclofenac and 4′-hydroxydiclofenac (CYP2C9 assay) [39, 40], S-mephenytoin, and 4-hydroxymephenytoin [42] as well as testosterone and 6β-hydroxytestosterone (CYP3A4 assay) [41] were performed as described previously.
(§4) Data were derived from at least three independent experiments and represented as the mean ± the standard error of the mean (SEM) values. The statistical significance (p < 0.05 and p < 0.01) was established by employing a one-way ANOVA test (IBS SPSS Statistics, v. 21; Armonk, NY, USA). The metabolite formation (% of control) was plotted as a function of the logarithmic concentrations, and then the IC50 values were determined using GraphPad Prism 8 software (San Diego, CA, USA).

[2] = system: NIH3T3 cells; experiment: WST-1 cell viability assay, NIH3T3 fibroblasts; format: cell-based; conditions: Mus musculus, NIH3T3 murine embryonic fibroblasts, 24 h treatment
Procedure: (§1) Murine embryonic fibroblast NIH3T3 cells were maintained in DMEM (Cat No. 043-30085, Wako Pure Chemical, Osaka, Japan) supplemented with 10% newborn calf serum (NBCS) at 37 °C and 5% CO2. Human cervix carcinoma HeLa cells were maintained in DMEM supplemented with 10% fetal bovine serum at 37 °C and 5% CO2. To determine the toxicity of BM and SL-BM, the WST-1 cell viability assay was employed as described previously. The cells (NIH3T3: 2000 per well; HeLa: 5000 per well) were seeded into all the wells of 96-well plates. After 24 h, the medium was replaced, and the cells were treated with the test compounds for 24 h. Then, the cells were incubated with a WST-1 solution (3.6 µg/µL WST-1, 70 ng/µL 1-methoxy phenazine methosulfate in 20 mM 4-(2-hydroxyethyl)-1-piperazineethanesufonic acid–KOH (pH 7.4); Dojindo, Kumamoto, Japan) for 1 h at 37 °C, and the absorbance of each well was recorded at 440 nm using a Multiskan FC microplate reader (Thermo Fisher Scientific).

[3] = system: HeLa cells; experiment: WST-1 cell viability assay, HeLa cells; format: cell-based; conditions: HeLa human cervix carcinoma cells, 24 h treatment
Procedure: as §1

[4] = molecular target: CYP2C19 (Homo sapiens, UniProt P33261); experiment: CYP2C19 inhibition assay (CypExpress 2C19 kit, S-mephenytoin substrate, HPLC); conditions: relative to BM
Sequence of CYP2C19 (P33261 whole entry): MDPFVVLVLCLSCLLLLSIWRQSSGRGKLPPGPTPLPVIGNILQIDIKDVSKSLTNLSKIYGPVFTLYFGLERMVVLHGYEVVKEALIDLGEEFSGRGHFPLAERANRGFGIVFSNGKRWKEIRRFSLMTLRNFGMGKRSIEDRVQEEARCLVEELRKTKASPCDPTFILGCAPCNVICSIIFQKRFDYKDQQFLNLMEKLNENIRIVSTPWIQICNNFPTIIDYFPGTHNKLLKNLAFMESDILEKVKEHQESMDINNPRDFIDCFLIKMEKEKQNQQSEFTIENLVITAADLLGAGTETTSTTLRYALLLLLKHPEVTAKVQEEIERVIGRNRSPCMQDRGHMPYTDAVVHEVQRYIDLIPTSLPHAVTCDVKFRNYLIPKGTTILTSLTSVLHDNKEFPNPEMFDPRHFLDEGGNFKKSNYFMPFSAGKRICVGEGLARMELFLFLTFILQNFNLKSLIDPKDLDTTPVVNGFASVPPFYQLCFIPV
Procedure: as §2, §3, §4

Sequence of CYP2C9 (P11712 whole entry): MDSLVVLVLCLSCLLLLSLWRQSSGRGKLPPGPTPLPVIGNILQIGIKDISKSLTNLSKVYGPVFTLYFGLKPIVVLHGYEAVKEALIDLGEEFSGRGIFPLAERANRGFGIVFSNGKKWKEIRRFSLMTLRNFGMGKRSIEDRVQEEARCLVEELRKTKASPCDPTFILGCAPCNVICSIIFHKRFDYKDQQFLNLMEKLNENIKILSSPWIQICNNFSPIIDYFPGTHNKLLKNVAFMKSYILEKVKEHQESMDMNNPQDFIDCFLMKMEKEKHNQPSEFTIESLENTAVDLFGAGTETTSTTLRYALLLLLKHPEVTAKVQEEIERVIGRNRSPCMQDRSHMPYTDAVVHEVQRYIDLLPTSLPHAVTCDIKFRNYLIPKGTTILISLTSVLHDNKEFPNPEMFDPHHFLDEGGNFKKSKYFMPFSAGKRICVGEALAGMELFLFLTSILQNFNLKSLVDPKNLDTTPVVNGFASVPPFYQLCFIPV

| IC50(rel): IC50 of the inhibitor divided by the substrate concentration [1] | α: IC50 of the inhibitor divided by the IC50 value of the positive control [1] | Compound | IC50 [2] [µM] | IC50 [3] [µM] | melting point [°C] | fold weaker inhibitor of CYP2C19 than BM [4] [fold] |
| --- | --- | --- | --- | --- | --- | --- |
| 1.96 | 1.00 | CC(=O)CC(c1ccccc1)c1c(O)c2ccccc2oc1=O (centres unmarked) [Warfarin, warfarin] | – | – | – | – |
| – | – | CC(C)=CCC/C(C)=C/COc1c2ccoc2cc2oc(=O)ccc12 [Bergamottin, 5-geranoxypsoralen] | > 50 | > 50 | – | – |
| – | – | C/C(=C\COc1c2ccoc2cc2oc(=O)ccc12)CCC=C1CC(C)(C)N([O])C(C)(C)C1 [SL-Bergamottin] | > 50 | 17.3 | 51 to 53 | ~15 |
